# Active and inactive are the calls of the source.
# What was measured:
# [1] = target: Nuclear receptor subfamily 5 group A member 2 (Homo sapiens, UniProt O00482); assay type: functional, cell-based;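 note: HEK293T cells transfected with LRH-1 and a StAR promoter luciferase reporter; potency for inhibitors that lower LRH-1 driven reporter light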
# Steroidogenic factor 1 = Steroidogenic factor 1 (Homo sapiens, UniProt Q13285); assay: Counterscreen for inverse agonists of the liver receptor homolog-1 (LRH-1; NR5A2): Luminescence-based cell-based high throughput dose response assay to identify inverse agonists of the Steroidogenic Factor 1 Nuclear Receptor (SF1; NR5A1).; assay type: functional
# [2] = nonselective StAR promoter luciferase inhibitors – cell-based, luminescence, luciferase reporter, counter-screen for LRH-1 inverse agonist project, dose response (AID 651969); assay type: functional
# [3] = target: Diacylglycerol lipase-beta (Mus musculus, UniProt Q91WC9); assay: Late stage assay provider results from the probe development effort to identify inhibitors of diacylglycerol lipase, beta (DAGLb): fluorescence-based dose-response biochemical gel-based competitive Activity-Based Protein Profiling (ABPP) inhibition of DAGLb in vitro.; assay type: functional
# [4] = target: DNA (cytosine-5)-methyltransferase 1 (Homo sapiens, UniProt P26358); assay: inhibition of DNA methylation by DNMT1 – biochemical, fluorescent molecular beacon, confirmation (AID 602386); assay type: functional
# [5] = target: 26S proteasome non-ATPase regulatory subunit 14 (Homo sapiens, UniProt O00487); assay: inhibition of proteasome subunit RPN11 – biochemical, fluorescence polarization, uHTS hits, confirmation (AID 602368); assay type: functional
# [6] = target: 72 kDa type IV collagenase (Homo sapiens, UniProt P08253); assay: Dose Response validation of uHTS RPN11 inhibitor hits using a MMP-2 Fluorescence assay.; assay type: functional
# Prothrombin = Prothrombin (Bos taurus, UniProt P00735); assay: thrombin protease inhibitors – biochemical, fluorescence polarization, uHTS hits, dose response (AID 602369); assay type: functional
# [7] = target: T1, Rac GTPase-activating protein 1 (Homo sapiens, UniProt Q9H0H5); assay: blockers of MgcRacGAP-driven Rac1 GTP hydrolysis – biochemical, ADP Hunter fluorescence, primary and confirmatory, confirmation (AID 624330); assay type: functional
# T1 sequence (Q9H0H5 whole entry): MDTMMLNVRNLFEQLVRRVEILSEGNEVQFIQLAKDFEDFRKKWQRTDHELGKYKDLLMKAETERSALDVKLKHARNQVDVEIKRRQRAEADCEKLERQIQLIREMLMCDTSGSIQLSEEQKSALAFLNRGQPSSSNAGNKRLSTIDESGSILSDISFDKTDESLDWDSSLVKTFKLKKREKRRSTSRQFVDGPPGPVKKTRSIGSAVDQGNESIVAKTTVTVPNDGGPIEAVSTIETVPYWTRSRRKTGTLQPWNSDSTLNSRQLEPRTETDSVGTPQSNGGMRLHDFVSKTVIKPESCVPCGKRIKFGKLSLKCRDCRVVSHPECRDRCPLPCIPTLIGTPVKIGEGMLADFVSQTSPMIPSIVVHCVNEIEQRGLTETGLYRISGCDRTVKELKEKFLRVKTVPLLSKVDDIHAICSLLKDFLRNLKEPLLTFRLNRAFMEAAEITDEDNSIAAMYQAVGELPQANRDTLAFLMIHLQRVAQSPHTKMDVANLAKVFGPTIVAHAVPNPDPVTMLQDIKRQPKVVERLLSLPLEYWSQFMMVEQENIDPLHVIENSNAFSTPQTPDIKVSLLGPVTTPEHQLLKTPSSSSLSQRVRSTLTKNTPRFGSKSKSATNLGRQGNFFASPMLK
# [8] = target: T2, Histone-lysine N-methyltransferase NSD2 (Homo sapiens, UniProt O96028); assay type: biochemical
# T2 sequence (O96028 whole entry): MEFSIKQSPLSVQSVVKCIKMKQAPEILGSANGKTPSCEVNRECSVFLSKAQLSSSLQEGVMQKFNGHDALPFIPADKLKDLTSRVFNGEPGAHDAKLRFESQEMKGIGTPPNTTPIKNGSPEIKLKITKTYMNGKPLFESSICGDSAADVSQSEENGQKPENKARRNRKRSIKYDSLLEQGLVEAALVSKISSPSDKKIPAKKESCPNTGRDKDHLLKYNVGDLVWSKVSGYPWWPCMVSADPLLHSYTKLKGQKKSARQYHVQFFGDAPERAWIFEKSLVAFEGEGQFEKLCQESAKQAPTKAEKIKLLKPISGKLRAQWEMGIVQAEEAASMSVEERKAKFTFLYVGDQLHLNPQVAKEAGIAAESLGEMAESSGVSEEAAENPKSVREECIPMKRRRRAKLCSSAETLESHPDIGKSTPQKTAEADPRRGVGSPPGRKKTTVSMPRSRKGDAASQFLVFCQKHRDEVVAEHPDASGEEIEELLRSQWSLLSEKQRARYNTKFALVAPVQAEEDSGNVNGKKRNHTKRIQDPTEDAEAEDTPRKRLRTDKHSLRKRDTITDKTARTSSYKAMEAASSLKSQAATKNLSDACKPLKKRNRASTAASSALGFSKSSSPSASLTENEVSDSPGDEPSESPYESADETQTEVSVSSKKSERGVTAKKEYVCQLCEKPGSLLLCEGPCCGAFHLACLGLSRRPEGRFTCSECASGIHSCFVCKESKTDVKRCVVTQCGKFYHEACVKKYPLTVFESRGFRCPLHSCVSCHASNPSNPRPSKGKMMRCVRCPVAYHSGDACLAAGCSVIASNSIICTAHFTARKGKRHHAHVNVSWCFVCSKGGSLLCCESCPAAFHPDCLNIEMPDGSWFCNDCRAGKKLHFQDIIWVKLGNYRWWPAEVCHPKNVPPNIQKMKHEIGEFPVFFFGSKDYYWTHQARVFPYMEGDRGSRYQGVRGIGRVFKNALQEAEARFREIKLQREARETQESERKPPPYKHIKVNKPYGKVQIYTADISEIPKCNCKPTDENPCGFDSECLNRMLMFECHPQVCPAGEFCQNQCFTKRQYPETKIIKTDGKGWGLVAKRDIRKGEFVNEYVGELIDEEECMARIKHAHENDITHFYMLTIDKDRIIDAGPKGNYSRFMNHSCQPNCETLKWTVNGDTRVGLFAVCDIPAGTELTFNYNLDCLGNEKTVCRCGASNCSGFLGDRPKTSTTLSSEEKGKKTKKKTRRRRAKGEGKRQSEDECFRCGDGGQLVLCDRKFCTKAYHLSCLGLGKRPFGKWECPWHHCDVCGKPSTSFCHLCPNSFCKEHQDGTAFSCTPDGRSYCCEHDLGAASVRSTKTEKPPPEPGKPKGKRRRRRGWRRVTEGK
# [9] = target: T3, Microphthalmia-associated transcription factor (Homo sapiens, UniProt O75030); assay: reducers of TRPM1 reporter luminescence, concentration series – cell-based, SK-MEL-5, cherry-picked, set 3, MITF inhibitor project, dose response (AID 493073); assay type: functional;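 note: SK-MEL-5 melanoma cells with luciferase driven by the MITF target TRPM1 promoter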
# T3 sequence (O75030 whole entry): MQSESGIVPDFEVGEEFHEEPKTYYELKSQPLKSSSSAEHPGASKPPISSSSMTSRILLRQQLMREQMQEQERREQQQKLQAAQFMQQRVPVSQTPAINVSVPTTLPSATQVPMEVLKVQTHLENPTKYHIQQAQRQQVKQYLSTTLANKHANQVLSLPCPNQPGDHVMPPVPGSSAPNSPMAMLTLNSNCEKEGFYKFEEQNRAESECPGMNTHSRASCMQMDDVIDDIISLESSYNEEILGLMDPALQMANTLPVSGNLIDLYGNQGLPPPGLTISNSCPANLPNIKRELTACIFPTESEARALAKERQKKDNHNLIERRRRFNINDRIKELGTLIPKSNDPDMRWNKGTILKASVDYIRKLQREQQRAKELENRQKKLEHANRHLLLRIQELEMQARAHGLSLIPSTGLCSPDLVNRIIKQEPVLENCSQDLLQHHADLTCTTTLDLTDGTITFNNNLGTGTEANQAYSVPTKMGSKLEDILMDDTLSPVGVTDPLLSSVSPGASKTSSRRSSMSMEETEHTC
# [10] = reduction of Shn3 3'UTR-driven luciferase in osteoblasts – cell-based, Clone20 osteoblasts, firefly luciferase, cherry-picked, dose response (AID 624132); assay type: functional;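 note: firefly luciferase luminescence from reporter carrying the Shn3 3'UTR in osteoblasts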
# [11] = loss of viability in HepG2 cells – cell-based, CellTiter-Glo, cherry-picked, cytotoxicity control for Shn3 inhibitor project, dose response (AID 624134); assay type: functional
# [12] = target: Photoreceptor-specific nuclear receptor (Homo sapiens, UniProt Q9Y5X4); assay type: functional, cell-based;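 note: CHO-S cells with Gal4-NCOR and VP16-NR2E3 two-hybrid luciferase reporter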
# [13] = target: T4, Apoptotic protease-activating factor 1 (Homo sapiens, UniProt O14727); assay: SAR analysis of small molecule Activators of Apaf-1 in a Fluorescent assay.; assay type: functional; details: read-out: EC50_Mean;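 note: caspase-3 cleavage of fluorogenic Rh110 DEVD substrate downstream of apoptosome activation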
# T4 sequence (O14727 whole entry): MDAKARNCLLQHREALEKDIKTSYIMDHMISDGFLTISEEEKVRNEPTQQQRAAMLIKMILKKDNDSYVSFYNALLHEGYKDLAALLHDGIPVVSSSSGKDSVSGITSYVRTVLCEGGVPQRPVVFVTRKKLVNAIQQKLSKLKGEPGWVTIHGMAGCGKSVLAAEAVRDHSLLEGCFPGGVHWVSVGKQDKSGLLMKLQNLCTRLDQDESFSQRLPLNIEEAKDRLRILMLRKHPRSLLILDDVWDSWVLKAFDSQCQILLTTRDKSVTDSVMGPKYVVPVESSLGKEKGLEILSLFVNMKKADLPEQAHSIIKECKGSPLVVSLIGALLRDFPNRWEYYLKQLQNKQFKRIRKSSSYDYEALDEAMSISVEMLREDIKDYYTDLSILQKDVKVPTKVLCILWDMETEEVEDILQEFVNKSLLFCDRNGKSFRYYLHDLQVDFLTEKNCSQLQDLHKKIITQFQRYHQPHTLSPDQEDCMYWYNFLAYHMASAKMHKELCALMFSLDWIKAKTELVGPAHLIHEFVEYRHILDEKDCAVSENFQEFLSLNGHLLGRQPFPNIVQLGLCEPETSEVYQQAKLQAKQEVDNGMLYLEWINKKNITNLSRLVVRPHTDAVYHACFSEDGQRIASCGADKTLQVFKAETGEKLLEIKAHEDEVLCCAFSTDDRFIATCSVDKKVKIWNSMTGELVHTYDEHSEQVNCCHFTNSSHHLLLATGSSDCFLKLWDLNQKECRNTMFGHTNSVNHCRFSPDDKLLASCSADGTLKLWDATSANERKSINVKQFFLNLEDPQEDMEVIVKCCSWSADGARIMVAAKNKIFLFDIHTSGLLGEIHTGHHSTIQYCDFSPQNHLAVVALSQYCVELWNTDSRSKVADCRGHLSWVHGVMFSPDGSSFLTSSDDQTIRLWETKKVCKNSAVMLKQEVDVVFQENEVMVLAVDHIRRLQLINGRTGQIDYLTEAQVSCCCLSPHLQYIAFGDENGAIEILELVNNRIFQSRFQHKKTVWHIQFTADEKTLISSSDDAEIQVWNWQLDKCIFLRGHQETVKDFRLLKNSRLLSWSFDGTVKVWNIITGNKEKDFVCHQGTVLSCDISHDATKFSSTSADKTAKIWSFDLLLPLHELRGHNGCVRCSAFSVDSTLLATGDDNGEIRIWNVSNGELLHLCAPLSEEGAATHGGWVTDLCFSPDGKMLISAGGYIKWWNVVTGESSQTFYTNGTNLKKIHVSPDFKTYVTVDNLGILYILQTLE
# [14] = target: T5, ATP-dependent translocase ABCB1 (Homo sapiens, UniProt P08183); assay: inhibition of BCRP-mediated JC-1 efflux – Ig-MXP3 cells, flow cytometry, set 2, dose response (AID 504566); assay type: functional; details: read-out: EC50_MICROM_;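 note: flow cytometry median green fluorescence of retained JC-1 dye; potency of efflux pump inhibition measured as rising substrate retention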
# [15] = target: T5, ATP-dependent translocase ABCB1; assay: P-gp JC-1 efflux blockade concentration-response – Jurkat-DNR cells, flow cytometry, set 2, dose response (AID 504569); assay type: functional; details: read-out: EC50_MICROM_;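 note: potency of pump inhibitors that raise cellular JC-1 green fluorescence up to the nicardipine level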
# [16] = Counterscreen for inhibitors of Trypanosoma brucei methionyl tRNA synthetase (MetRS): Luminescence-based cell-based high throughput dose response assay to identify compounds that are cytotoxic to Jurkat human T lymphocyte cells.; assay type: functional
# [17] = target: T6, Low molecular weight phosphotyrosine protein phosphatase (Homo sapiens, UniProt P24666); assay type: functional; details: read-out: IC50_Mean
# T6 sequence (P24666 whole entry): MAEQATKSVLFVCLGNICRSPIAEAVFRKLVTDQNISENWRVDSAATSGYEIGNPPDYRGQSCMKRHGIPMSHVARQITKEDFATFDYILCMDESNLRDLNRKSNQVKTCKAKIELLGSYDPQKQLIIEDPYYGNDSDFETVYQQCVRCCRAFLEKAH
# [18] = target: T6, Low molecular weight phosphotyrosine protein phosphatase; assay type: functional; details: read-out: IC50_Mean; remark: listed apart in the source
# Interleukin-8 [19] = target: T7, Interleukin-8 (Homo sapiens, UniProt P10145); assay: Dose Response confirmation of uHTS small molecule hits for cystic fibrosis induced NFkb Inhibitors in a TNFa-induced IL8 counterscreen.; assay type: functional; details: read-out: IC50_Mean
# T7 sequence (P10145 whole entry): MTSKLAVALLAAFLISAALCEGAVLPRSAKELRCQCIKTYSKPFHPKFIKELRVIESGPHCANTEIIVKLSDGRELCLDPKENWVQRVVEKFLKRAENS
# Interleukin-8 [20] = target: T7, Interleukin-8; assay: Dose Response confirmation of uHTS small molecule hits for cystic fibrosis induced NFkb Inhibitors in a PAF-induced IL8 counterscreen.; assay type: functional; details: read-out: IC50_Mean
# T5 sequence (P08183 whole entry): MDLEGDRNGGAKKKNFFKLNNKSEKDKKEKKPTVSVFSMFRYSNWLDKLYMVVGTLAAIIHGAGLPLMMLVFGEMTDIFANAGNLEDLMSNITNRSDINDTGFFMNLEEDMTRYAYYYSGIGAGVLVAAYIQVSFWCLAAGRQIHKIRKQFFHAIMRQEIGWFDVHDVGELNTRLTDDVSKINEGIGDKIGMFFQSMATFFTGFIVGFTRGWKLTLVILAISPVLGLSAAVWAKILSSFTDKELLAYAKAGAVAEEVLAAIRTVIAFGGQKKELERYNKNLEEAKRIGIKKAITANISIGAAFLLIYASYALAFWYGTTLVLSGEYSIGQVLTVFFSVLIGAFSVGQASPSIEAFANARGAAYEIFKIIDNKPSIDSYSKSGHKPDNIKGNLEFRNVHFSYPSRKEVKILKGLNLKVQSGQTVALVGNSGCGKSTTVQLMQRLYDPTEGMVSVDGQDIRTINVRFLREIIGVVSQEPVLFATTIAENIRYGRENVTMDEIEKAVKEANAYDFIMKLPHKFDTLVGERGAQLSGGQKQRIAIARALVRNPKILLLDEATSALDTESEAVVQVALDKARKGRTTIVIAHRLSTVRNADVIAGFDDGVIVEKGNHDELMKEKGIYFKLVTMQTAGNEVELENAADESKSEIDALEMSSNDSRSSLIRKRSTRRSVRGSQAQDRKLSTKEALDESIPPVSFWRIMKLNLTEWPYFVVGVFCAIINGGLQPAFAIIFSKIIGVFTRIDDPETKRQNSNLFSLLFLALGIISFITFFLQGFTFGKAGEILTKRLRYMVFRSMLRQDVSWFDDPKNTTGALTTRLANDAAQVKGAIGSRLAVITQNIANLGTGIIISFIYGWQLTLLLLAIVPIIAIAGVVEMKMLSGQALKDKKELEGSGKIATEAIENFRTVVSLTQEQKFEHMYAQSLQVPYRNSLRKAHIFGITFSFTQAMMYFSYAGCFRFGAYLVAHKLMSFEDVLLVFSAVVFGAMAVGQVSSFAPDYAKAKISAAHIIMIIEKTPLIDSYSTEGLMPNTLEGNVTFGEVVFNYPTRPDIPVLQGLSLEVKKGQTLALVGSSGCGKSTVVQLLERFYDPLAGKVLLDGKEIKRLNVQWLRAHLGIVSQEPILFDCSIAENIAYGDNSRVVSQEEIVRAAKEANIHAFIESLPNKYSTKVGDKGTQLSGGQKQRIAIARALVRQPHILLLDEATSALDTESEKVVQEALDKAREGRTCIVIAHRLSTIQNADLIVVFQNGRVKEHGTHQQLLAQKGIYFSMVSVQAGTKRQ
# Diacylglycerol lipase-beta, sequence (Q91WC9 whole entry): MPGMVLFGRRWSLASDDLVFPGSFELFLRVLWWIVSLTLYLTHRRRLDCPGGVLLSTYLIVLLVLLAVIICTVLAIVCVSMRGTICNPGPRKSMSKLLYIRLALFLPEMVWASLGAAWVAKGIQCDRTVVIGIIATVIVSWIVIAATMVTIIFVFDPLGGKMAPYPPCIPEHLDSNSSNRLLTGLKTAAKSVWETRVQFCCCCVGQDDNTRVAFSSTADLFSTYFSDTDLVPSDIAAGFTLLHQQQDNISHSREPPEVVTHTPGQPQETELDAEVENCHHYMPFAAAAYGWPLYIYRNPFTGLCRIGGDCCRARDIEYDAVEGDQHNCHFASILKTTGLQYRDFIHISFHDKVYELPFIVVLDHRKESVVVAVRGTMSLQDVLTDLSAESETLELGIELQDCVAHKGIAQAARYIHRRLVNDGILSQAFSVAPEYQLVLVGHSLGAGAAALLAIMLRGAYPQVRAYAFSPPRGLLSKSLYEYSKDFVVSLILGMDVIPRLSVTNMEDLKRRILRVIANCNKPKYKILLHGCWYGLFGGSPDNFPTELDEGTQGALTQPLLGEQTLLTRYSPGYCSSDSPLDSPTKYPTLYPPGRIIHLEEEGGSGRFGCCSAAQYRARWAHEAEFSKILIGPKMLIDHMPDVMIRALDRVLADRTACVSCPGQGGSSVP
# 72 kDa type IV collagenase, sequence (P08253 whole entry): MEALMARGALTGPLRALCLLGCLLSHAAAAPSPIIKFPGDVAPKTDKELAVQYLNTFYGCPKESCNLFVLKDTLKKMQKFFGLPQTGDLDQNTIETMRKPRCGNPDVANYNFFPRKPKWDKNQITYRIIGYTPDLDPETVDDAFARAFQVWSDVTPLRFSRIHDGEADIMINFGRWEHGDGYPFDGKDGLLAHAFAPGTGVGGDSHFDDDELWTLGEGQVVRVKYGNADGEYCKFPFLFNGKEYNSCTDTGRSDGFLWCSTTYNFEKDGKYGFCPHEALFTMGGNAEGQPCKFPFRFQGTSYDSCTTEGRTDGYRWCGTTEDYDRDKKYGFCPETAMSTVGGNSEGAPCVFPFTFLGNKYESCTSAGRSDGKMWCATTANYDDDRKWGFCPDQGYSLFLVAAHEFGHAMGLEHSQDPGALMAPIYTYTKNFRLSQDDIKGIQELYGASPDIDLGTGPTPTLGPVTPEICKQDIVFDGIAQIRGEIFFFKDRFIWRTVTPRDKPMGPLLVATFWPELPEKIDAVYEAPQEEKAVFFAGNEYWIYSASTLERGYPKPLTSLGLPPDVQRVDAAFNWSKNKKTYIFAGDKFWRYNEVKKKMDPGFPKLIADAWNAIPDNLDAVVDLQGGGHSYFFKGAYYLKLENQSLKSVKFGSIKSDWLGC
# DNA (cytosine-5)-methyltransferase 1, sequence (P26358 whole entry): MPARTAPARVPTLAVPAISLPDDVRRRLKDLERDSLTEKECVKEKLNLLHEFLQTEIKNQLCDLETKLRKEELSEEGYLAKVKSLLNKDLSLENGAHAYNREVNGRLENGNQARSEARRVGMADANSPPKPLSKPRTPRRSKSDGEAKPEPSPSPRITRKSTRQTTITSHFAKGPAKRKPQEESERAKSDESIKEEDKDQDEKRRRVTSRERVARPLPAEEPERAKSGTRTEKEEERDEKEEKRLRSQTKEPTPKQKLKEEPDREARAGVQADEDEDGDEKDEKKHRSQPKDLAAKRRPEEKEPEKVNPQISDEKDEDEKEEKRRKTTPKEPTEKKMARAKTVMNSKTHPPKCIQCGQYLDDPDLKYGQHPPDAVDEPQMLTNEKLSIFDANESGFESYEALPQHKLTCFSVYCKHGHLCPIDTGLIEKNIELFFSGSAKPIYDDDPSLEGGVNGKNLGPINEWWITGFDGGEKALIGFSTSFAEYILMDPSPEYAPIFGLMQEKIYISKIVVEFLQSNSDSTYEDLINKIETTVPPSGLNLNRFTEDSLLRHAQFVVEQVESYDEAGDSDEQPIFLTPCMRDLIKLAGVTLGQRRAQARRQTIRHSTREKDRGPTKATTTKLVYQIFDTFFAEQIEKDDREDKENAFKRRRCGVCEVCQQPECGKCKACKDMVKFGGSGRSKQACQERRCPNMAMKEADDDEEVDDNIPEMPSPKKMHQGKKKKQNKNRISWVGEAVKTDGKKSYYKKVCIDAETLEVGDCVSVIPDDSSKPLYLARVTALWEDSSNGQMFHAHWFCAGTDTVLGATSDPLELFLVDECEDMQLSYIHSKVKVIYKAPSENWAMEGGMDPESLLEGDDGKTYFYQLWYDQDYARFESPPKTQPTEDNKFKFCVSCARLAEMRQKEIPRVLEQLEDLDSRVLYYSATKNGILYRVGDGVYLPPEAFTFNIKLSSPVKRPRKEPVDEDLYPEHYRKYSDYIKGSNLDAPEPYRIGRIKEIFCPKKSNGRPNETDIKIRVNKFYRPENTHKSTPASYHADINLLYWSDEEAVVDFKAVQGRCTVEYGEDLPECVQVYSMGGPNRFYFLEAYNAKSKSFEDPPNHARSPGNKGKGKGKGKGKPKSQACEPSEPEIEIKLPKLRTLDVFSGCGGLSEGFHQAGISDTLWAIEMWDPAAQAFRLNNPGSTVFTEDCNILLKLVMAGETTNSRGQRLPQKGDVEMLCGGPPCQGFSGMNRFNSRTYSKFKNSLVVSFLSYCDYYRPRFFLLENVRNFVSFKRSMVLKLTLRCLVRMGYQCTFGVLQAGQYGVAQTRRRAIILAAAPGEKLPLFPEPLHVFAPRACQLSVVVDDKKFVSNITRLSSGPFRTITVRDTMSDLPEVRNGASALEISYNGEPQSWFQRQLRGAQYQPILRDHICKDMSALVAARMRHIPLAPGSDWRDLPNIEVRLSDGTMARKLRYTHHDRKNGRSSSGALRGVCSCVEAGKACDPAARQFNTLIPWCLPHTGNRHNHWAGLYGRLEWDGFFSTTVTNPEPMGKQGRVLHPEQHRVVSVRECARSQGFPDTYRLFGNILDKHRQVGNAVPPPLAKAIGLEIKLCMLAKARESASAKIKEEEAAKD
# Nuclear receptor subfamily 5 group A member 2, sequence (O00482 whole entry): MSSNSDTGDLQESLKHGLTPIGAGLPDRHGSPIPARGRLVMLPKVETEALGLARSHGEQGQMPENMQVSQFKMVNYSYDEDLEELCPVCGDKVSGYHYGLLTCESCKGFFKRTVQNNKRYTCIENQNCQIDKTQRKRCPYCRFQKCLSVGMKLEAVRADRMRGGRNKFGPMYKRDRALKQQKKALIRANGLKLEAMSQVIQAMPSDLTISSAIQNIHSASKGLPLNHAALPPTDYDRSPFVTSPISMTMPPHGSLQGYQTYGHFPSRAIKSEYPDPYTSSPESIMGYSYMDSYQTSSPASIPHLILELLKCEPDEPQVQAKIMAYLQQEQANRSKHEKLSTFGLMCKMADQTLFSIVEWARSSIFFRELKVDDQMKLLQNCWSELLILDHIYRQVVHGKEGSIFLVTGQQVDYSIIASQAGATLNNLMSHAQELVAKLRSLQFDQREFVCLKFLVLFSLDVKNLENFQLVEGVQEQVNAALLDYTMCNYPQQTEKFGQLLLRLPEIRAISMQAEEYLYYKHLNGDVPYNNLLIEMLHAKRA
# 26S proteasome non-ATPase regulatory subunit 14, sequence (O00487 whole entry): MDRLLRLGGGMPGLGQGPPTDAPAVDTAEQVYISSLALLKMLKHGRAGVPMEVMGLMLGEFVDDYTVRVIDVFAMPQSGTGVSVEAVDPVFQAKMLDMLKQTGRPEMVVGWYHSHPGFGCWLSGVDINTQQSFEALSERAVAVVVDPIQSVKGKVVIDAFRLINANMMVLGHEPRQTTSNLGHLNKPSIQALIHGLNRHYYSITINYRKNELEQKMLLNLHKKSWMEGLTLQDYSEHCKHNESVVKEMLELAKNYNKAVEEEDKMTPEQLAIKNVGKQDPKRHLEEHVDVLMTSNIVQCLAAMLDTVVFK
structure (smiles),measurement,setting,value
O=C(CN1C(=O)NC2(CCCCC2)C1=O)NCCc1c[nH]c2ccccc12,IC50,[1],10.3 µM (inactive)
same,IC50,Steroidogenic factor 1,5.36 µM (active)
same,IC50,[2],35.9 µM (inactive)
O=C(N1CCCCC1Cc1ccccc1)n1cc(-c2ccc(OC(F)(F)F)cc2)nn1 (configuration not stated),IC50,[3],0.052 µM (active)
CC1=NN(c2ccccc2)C(=O)C1/C=C1\NC(=S)NC1=O (configuration not stated),IC50,[4],8.39 µM (active)
same,IC50,[5],32.4 µM (active)
same,IC50,[6],> 100 µM (inactive)
same,IC50,Prothrombin,52.8 µM (active)
same,IC50,[7],238 µM (active)
same,AC50,[8],4.16 µM (active)
Cc1cc(C(=O)COc2cccnc2[N+](=O)[O-])c(C)n1-c1ccccc1,AC50,[9],1.48 µM (active)
same,AC50,[10],34.8 µM (active)
same,AC50,[11],> 70 µM (inactive)
same,IC50,[12],0.517 µM (active)
Cc1ccc(NCC(C)C(=O)O)cc1C (configuration not stated),EC50,[13],> 100 µM (inactive)
COc1ccccc1-c1cc2nc(-c3ccccc3)cc(N3CCN(C(=O)c4ccccc4)CC3)n2n1,EC50,[14],0.72 µM (active)
same,EC50,[15],2.87 µM (active)
COc1ccc(N=C(S)N2CCC(c3nc4cc(Cl)ccc4[nH]3)CC2)c(OC)c1,IC50,[16],83.3 µM (inactive)
Fc1ccccc1-c1nc(NC2CCCC2)c2ccccc2n1,IC50,[17],13.1 µM (active)
same,IC50,[18],7.48 µM (active)
c1cc(-c2cnc3cccnn23)c2cccnc2c1,IC50,Interleukin-8 [19],56.5 µM (inactive)
same,IC50,Interleukin-8 [20],14.4 µM (inactive)
